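Protocol summary: plate cells (96-well), add compound at 5 concentrations, incubate 48 h, interpolate endpoints linearly. Here, GI50 denotes the concentration required for 50% inhibition of growth. Definition used: TGI = concentration required for complete inhibition of growth.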
Tests used:
Experiment in all cases: NCI tumour cell line growth inhibition, 48 h
RPMI-8226 leukemia = system: RPMI-8226 leukemia
CCRF-CEM leukemia = system: CCRF-CEM leukemia
SR leukemia = system: SR leukemia
HCT-116 colon = system: HCT-116 colon
PC-3 prostate = system: PC-3 prostate
U251 CNS = system: U251 CNS
SK-MEL-2 melanoma = system: SK-MEL-2 melanoma
SK-MEL-5 melanoma = system: SK-MEL-5 melanoma
NCI-H23 lung = system: NCI-H23 lung
DU-145 prostate = system: DU-145 prostate
EKVX NSCLC = system: EKVX NSCLC
K-562 leukemia = system: K-562 leukemia
OVCAR-4 ovarian = system: OVCAR-4 ovarian
OVCAR-5 ovarian = system: OVCAR-5 ovarian
ACHN renal = system: ACHN renal
SF-268 CNS = system: SF-268 CNS
TK-10 renal = system: TK-10 renal
BT-549 breast = system: BT-549 breast
HOP-92 NSCLC = system: HOP-92 NSCLC
HCC-2998 colon = system: HCC-2998 colon
HCT-15 colon = system: HCT-15 colon
MDA-MB-231 breast = system: MDA-MB-231 breast
A549 NSCLC = system: A549 NSCLC
UACC-257 melanoma = system: UACC-257 melanoma
SF-295 CNS = system: SF-295 CNS
HOP-62 NSCLC = system: HOP-62 NSCLC
HL-60(TB) leukemia = system: HL-60(TB) leukemia
LOX IMVI melanoma = system: LOX IMVI melanoma
SNB-19 CNS = system: SNB-19 CNS
KM12 colon = system: KM12 colon
NCI/ADR-RES ovarian = system: NCI/ADR-RES ovarian
IGROV1 ovarian = system: IGROV1 ovarian
MALME-3M melanoma = system: MALME-3M melanoma
COLO 205 colon = system: COLO 205 colon
SN12C renal = system: SN12C renal
HT29 colon = system: HT29 colon
MDA-MB-435 = system: MDA-MB-435
M14 melanoma = system: M14 melanoma
SF-539 CNS = system: SF-539 CNS
MCF7 breast = system: MCF7 breast
786-0 renal = system: 786-0 renal
SNB-75 CNS = system: SNB-75 CNS
CAKI-1 renal = system: CAKI-1 renal
NCI-H460 lung = system: NCI-H460 lung
NCI-H522 lung = system: NCI-H522 lung
MOLT-4 leukemia = system: MOLT-4 leukemia
OVCAR-8 ovarian = system: OVCAR-8 ovarian
NCI-H226 lung = system: NCI-H226 lung
SW-620 colon = system: SW-620 colon
A498 renal = system: A498 renal
RXF 393 renal = system: RXF 393 renal
HS 578T breast = system: HS 578T breast
SK-OV-3 ovarian = system: SK-OV-3 ovarian
OVCAR-3 ovarian = system: OVCAR-3 ovarian
UO-31 renal = system: UO-31 renal
UACC-62 melanoma = system: UACC-62 melanoma

O=c1[nH]nc(Nc2ccc(Cl)cc2)c2nnn(-c3ccc([N+](=O)[O-])cc3)c12
TGI (RPMI-8226 leukemia): > 100 µM | TGI (CCRF-CEM leukemia): 61.7 µM | TGI (SR leukemia): > 100 µM | TGI (HCT-116 colon): 42.4 µM | TGI (PC-3 prostate): 68.8 µM | TGI (U251 CNS): 46 µM | TGI (SK-MEL-2 melanoma): 82.2 µM | TGI (SK-MEL-5 melanoma): 22.7 µM | TGI (NCI-H23 lung): 24.9 µM | TGI (DU-145 prostate): 48.6 µM | TGI (EKVX NSCLC): > 100 µM | TGI (K-562 leukemia): 29.9 µM | TGI (OVCAR-4 ovarian): > 100 µM | TGI (OVCAR-5 ovarian): > 100 µM | TGI (ACHN renal): > 100 µM | TGI (SF-268 CNS): > 100 µM | TGI (TK-10 renal): 46.7 µM | TGI (BT-549 breast): > 100 µM | TGI (HOP-92 NSCLC): 46.9 µM | TGI (HCC-2998 colon): 64.7 µM | TGI (HCT-15 colon): > 100 µM | TGI (MDA-MB-231 breast): > 100 µM | TGI (A549 NSCLC): 29.1 µM | TGI (UACC-257 melanoma): > 100 µM | TGI (SF-295 CNS): > 100 µM | TGI (HOP-62 NSCLC): > 100 µM | TGI (HL-60(TB) leukemia): > 100 µM | TGI (LOX IMVI melanoma): 53.1 µM | TGI (SNB-19 CNS): > 100 µM | TGI (KM12 colon): > 100 µM | TGI (NCI/ADR-RES ovarian): > 100 µM | TGI (IGROV1 ovarian): > 100 µM | TGI (MALME-3M melanoma): > 100 µM | TGI (COLO 205 colon): 49.7 µM | TGI (SN12C renal): > 100 µM | TGI (HT29 colon): > 100 µM | TGI (MDA-MB-435): > 100 µM | TGI (M14 melanoma): > 100 µM | TGI (SF-539 CNS): 39.6 µM | TGI (MCF7 breast): 47.4 µM | TGI (786-0 renal): 35.5 µM | TGI (SNB-75 CNS): > 100 µM | TGI (CAKI-1 renal): > 100 µM | TGI (NCI-H460 lung): > 100 µM | TGI (NCI-H522 lung): 18 µM | TGI (MOLT-4 leukemia): 45.2 µM | TGI (OVCAR-8 ovarian): 48 µM | TGI (NCI-H226 lung): > 100 µM | TGI (SW-620 colon): > 100 µM

CCN(CC)CCCC(C)Nc1ccnc2cc(OC)ccc12 (stereo not given)
GI50 (RPMI-8226 leukemia): 18.6 µM | TGI (RPMI-8226 leukemia): 42 µM | GI50 (CCRF-CEM leukemia): 18.1 µM | TGI (CCRF-CEM leukemia): 42.3 µM | GI50 (SR leukemia): 24.1 µM | TGI (SR leukemia): > 100 µM | GI50 (HCT-116 colon): 29.2 µM | TGI (HCT-116 colon): 46 µM | GI50 (PC-3 prostate): 5.77 µM | TGI (PC-3 prostate): 21.8 µM | GI50 (U251 CNS): 42 µM | TGI (U251 CNS): > 100 µM | GI50 (SK-MEL-2 melanoma): 24.8 µM | TGI (SK-MEL-2 melanoma): 52.9 µM | GI50 (A498 renal): 35.3 µM | TGI (A498 renal): > 100 µM | GI50 (RXF 393 renal): 15.7 µM | TGI (RXF 393 renal): 35.5 µM | GI50 (SK-MEL-5 melanoma): 18.3 µM | TGI (SK-MEL-5 melanoma): 32.8 µM | GI50 (NCI-H23 lung): 31.6 µM | TGI (NCI-H23 lung): 96.3 µM | GI50 (HS 578T breast): 26.3 µM | TGI (HS 578T breast): 66.3 µM | GI50 (DU-145 prostate): 20.6 µM | TGI (DU-145 prostate): 44.4 µM | GI50 (SK-OV-3 ovarian): 24.9 µM | TGI (SK-OV-3 ovarian): 52.3 µM | GI50 (EKVX NSCLC): 44.9 µM | TGI (EKVX NSCLC): > 100 µM | GI50 (K-562 leukemia): 33.7 µM | TGI (K-562 leukemia): > 100 µM | GI50 (OVCAR-4 ovarian): 22.6 µM | TGI (OVCAR-4 ovarian): 62.2 µM | GI50 (OVCAR-5 ovarian): 21.2 µM | TGI (OVCAR-5 ovarian): 50.2 µM | GI50 (ACHN renal): 39.4 µM | TGI (ACHN renal): > 100 µM | GI50 (SF-268 CNS): > 100 µM | TGI (SF-268 CNS): > 100 µM | GI50 (TK-10 renal): 17.7 µM | TGI (TK-10 renal): 40.6 µM | GI50 (BT-549 breast): 18.7 µM | TGI (BT-549 breast): 37 µM | GI50 (HOP-92 NSCLC): 9.25 µM | TGI (HOP-92 NSCLC): 26.7 µM | GI50 (HCC-2998 colon): 14.7 µM | TGI (HCC-2998 colon): 28.4 µM | GI50 (HCT-15 colon): 37.5 µM | TGI (HCT-15 colon): > 100 µM | GI50 (MDA-MB-231 breast): 22.5 µM | TGI (MDA-MB-231 breast): 54.3 µM | GI50 (A549 NSCLC): 18.3 µM | TGI (A549 NSCLC): 35.5 µM | GI50 (UACC-257 melanoma): 18.2 µM | TGI (UACC-257 melanoma): 34.2 µM | GI50 (SF-295 CNS): 34.3 µM | TGI (SF-295 CNS): > 100 µM | GI50 (OVCAR-3 ovarian): 23.7 µM | TGI (OVCAR-3 ovarian): 67.5 µM | GI50 (UO-31 renal): 16.4 µM | TGI (UO-31 renal): 34.6 µM | GI50 (HOP-62 NSCLC): 21.2 µM | TGI (HOP-62 NSCLC): 50.9 µM | GI50 (UACC-62 melanoma): 19.5 µM | TGI (UACC-62 melanoma): 37.7 µM | GI50 (LOX IMVI melanoma): 29.5 µM | TGI (LOX IMVI melanoma): > 100 µM | GI50 (SNB-19 CNS): 22.4 µM | TGI (SNB-19 CNS): 53.3 µM | GI50 (KM12 colon): 26.4 µM | TGI (KM12 colon): > 100 µM | GI50 (NCI/ADR-RES ovarian): 91.1 µM | TGI (NCI/ADR-RES ovarian): > 100 µM | GI50 (IGROV1 ovarian): 27.3 µM | TGI (IGROV1 ovarian): 79.3 µM | GI50 (MALME-3M melanoma): 22.1 µM | TGI (MALME-3M melanoma): 50.2 µM | GI50 (COLO 205 colon): 16.1 µM | TGI (COLO 205 colon): 36.8 µM | GI50 (SN12C renal): 29.7 µM | TGI (SN12C renal): 75.1 µM | GI50 (MDA-MB-435): 19.9 µM | TGI (MDA-MB-435): 40.5 µM | GI50 (M14 melanoma): 16.7 µM | TGI (M14 melanoma): 30.4 µM | GI50 (SF-539 CNS): 19 µM | TGI (SF-539 CNS): 34.4 µM | GI50 (MCF7 breast): > 100 µM | TGI (MCF7 breast): > 100 µM | GI50 (786-0 renal): 17.1 µM | TGI (786-0 renal): 35.9 µM | GI50 (CAKI-1 renal): 19.6 µM | TGI (CAKI-1 renal): 44.4 µM | GI50 (NCI-H460 lung): > 100 µM | TGI (NCI-H460 lung): > 100 µM | GI50 (NCI-H522 lung): 17.9 µM | TGI (NCI-H522 lung): 37.4 µM | GI50 (MOLT-4 leukemia): 25.9 µM | TGI (MOLT-4 leukemia): 74.5 µM | GI50 (OVCAR-8 ovarian): 24.3 µM | TGI (OVCAR-8 ovarian): 71.1 µM | GI50 (NCI-H226 lung): 22.2 µM | TGI (NCI-H226 lung): 46.6 µM | GI50 (SW-620 colon): 23.7 µM | TGI (SW-620 colon): 58.2 µM
